Data published in patent US12522601B2, “1,3,4-oxadiazole derivative compounds as histone deacetylase 6 inhibitor, and the pharmaceutical composition comprising the same” (CHONG KUN DANG PHARMACEUTICAL CORP., priority 2020, dated 2026).
pIC50: −log10 of the molar value.

Columns and labels:
[1] = molecular target: T1, human recombinant HDAC1 (Homo sapiens, UniProt Q13547); test: In vitro HDAC enzyme activity inhibition assay, HDAC1 (HDAC Fluorimetric Drug Discovery Kit); format: biochemical; details: human recombinant HDAC1, Fluor de Lys-SIRT1 substrate 10 μM, 30° C. for 60 minutes
T1 construct: purchased Enzo Life Sciences, Inc. BML-SE456
In short: (§1)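 Fluorimetric deacetylase kit; 0.3 μg human recombinant enzyme with 10 μM Fluor de Lys-SIRT1 substrate, 60 min at 30° C, then developer 30 min. Fluorescence read at Ex 360/Em 460; IC50 from 5-fold compound dilutions. HDAC1 and HDAC6 run by the same protocol.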

[2] = molecular target: T2, human recombinant HDAC6 (Homo sapiens, UniProt Q9UBN7); test: In vitro HDAC enzyme activity inhibition assay, HDAC6 (HDAC Fluorimetric Drug Discovery Kit); format: biochemical; details: for HDAC6 Selectivity (fold): HDAC6 versus HDAC1; for pIC50: human recombinant HDAC6, same protocol as the HDAC1 test
T2 construct: purchased Calbiochem Inc. 382180
T2 sequence (Q9UBN7 1-1215): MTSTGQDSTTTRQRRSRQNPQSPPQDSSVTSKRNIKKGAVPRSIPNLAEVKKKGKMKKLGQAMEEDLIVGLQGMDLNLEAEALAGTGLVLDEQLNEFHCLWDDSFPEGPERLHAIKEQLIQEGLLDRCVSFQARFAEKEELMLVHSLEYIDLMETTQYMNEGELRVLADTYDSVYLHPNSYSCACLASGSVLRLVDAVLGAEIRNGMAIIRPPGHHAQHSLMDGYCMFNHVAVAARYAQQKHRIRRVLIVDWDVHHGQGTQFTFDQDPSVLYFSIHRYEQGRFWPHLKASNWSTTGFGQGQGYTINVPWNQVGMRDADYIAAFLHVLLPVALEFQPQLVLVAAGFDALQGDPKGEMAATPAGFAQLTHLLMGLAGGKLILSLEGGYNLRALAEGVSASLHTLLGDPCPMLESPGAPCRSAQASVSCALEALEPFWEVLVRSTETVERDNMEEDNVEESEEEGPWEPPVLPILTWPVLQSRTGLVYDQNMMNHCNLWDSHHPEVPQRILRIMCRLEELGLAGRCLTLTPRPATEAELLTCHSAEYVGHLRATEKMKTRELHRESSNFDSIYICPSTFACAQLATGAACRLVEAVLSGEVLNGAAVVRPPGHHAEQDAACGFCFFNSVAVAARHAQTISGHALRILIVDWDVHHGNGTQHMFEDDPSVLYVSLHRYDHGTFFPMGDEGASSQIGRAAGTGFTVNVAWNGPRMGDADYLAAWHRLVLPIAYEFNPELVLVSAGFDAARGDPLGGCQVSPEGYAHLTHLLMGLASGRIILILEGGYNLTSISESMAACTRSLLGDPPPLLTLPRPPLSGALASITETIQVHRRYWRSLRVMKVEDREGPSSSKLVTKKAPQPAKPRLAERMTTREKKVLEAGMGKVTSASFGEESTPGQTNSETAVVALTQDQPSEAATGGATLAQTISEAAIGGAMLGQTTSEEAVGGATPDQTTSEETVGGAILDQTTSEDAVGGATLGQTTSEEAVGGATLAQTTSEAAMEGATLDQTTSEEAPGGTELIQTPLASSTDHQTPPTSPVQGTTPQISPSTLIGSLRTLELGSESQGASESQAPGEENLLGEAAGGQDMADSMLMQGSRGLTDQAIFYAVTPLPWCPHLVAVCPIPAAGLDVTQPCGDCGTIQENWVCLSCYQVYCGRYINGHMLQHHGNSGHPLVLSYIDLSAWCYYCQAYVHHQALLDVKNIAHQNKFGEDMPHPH
In short: as §1

T1 sequence (Q13547 whole entry): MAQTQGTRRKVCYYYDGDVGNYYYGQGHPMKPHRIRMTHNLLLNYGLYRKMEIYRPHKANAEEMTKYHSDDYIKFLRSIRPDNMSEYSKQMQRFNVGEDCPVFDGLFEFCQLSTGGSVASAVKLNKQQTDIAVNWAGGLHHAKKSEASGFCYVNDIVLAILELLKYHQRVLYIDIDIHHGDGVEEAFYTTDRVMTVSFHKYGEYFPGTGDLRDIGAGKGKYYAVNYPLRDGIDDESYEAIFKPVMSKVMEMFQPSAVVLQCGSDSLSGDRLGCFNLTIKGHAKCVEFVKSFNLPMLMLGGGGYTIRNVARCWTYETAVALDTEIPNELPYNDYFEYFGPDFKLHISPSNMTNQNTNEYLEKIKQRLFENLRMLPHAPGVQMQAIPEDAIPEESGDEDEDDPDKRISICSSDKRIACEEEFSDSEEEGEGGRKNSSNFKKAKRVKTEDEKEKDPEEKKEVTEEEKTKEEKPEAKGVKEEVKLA

Row | pIC50 [1] | HDAC6 Selectivity (fold) [2] [fold] | pIC50 [2] | SMILES
1 | < 4.30 | 159 | 6.50 | CS(=O)(=O)N1CCC(C(=O)N(Cc2cn3ccc(-c4nnc(C(F)F)o4)cc3n2)c2ccccc2)CC1 [Compound 4128, N-((7-(5-(difluoromethyl)-1,3,4-oxadiazol-2-yl)imidazo[1,2-a]pyridin-2-yl)methyl)-1-(methylsulfonyl)-N-phenylpiperidine-4-carboxamide]
2 | < 4.30 | 401 | 6.90 | FC(F)c1nnc(-c2ccn3cc(CNc4cccnc4)nc3c2)o1 [Compound 3675, N-((7-(5-(difluoromethyl)-1,3,4-oxadiazol-2-yl)imidazo[1,2-a]pyridin-2-yl)methyl)pyridin-3-amine]
3 | < 4.30 | 246 | 6.69 | CC(CO)N1CCC(C(=O)N(Cc2cn3ccc(-c4nnc(C(F)F)o4)cc3n2)c2cccc(F)c2)CC1 (stereo not drawn) [Compound 4140, N-((7-(5-(difluoromethyl)-1,3,4-oxadiazol-2-yl)imidazo[1,2-a]pyridin-2-yl)methyl)-N-(3-fluorophenyl)-1-(1-hydroxypropan-2-yl)piperidine-4-carboxamide]
4 | < 4.30 | 335 | 6.83 | CS(=O)(=O)N1CCN(C(=O)N(Cc2cn3ccc(-c4nnc(C(F)F)o4)cc3n2)c2cccc(F)c2)CC1 [Compound 4097, N-((7-(5-(difluoromethyl)-1,3,4-oxadiazol-2-yl)imidazo[1,2-a]pyridin-2-yl)methyl)-N-(3-fluorophenyl)-4-(methylsulfonyl)piperazine-1-carboxamide]
5 | < 4.30 | 47 | 5.97 | FC(F)c1nnc(-c2ccn3cc(Cc4ccc(C(F)(F)F)cc4)nc3c2)o1 [Compound 3591]
6 | < 4.30 | 56 | 6.05 | FC(F)c1nnc(-c2ccn3cc(COc4ccc(C(F)(F)F)cc4)nc3c2)o1 [Compound 3724, 2-(difluoromethyl)-5-(2-((4-(trifluoromethyl)phenoxy)methyl)imidazo[1,2-a]pyridin-7-yl)-1,3,4-oxadiazole]
7 | < 4.30 | 197 | 6.60 | O=C(C1CN(C2CCC(F)(F)CC2)C1)N(Cc1cn2ccc(-c3nnc(C(F)F)o3)cc2n1)c1ccccc1 [Compound 4166, 1-(4,4-difluorocyclohexyl)-N-((7-(5-(difluoromethyl)-1,3,4-oxadiazol-2-yl)imidazo[1,2-a]pyridin-2-yl)methyl)-N-phenylazetidine-3-carboxamide]
8 | < 4.30 | 140 | 6.45 | O=C(C1CN(C2CCC2)C1)N(Cc1cn2ccc(-c3nnc(C(F)F)o3)cc2n1)c1ccccc1 [Compound 4162, 1-cyclobutyl-N-((7-(5-(difluoromethyl)-1,3,4-oxadiazol-2-yl)imidazo[1,2-a]pyridin-2-yl)methyl)-N-phenylazetidine-3-carboxamide]
9 | < 4.30 | 382 | 6.88 | O=C(N1CCN(C2CCOCC2)CC1)N(Cc1cn2ccc(-c3nnc(C(F)F)o3)cc2n1)c1ccccc1 [Compound 4038, N-((7-(5-(difluoromethyl)-1,3,4-oxadiazol-2-yl)imidazo[1,2-a]pyridin-2-yl)methyl)-N-phenyl-4-(tetrahydro-2H-pyran-4-yl)piperazine-1-carboxamide]
10 | < 4.30 | 727 | 7.16 | CN1CCN(C(=O)N(Cc2cn3ccc(-c4nnc(C(F)F)o4)cc3n2)c2ccccc2)CC1 [Compound 3784, N-((7-(5-(difluoromethyl)-1,3,4-oxadiazol-2-yl)imidazo[1,2-a]pyridin-2-yl)methyl)-4-methyl-N-phenylpiperazine-1-carboxamide]
11 | < 4.30 | 539 | 7.03 | O=C(N1CCN(c2ncccn2)CC1)N(Cc1cn2ccc(-c3nnc(C(F)F)o3)cc2n1)c1ccccc1 [Compound 4049, N-((7-(5-(difluoromethyl)-1,3,4-oxadiazol-2-yl)imidazo[1,2-a]pyridin-2-yl)methyl)-N-phenyl-4-(pyrimidin-2-yl)piperazine-1-carboxamide]
12 | < 4.30 | 199 | 6.60 | O=C(C1CN(c2ccccn2)C1)N(Cc1cn2ccc(-c3nnc(C(F)F)o3)cc2n1)c1ccccc1 [Compound 4176, N-((7-(5-(difluoromethyl)-1,3,4-oxadiazol-2-yl)imidazo[1,2-a]pyridin-2-yl)methyl)-N-phenyl-1-(pyridin-2-yl) azetidine-3-carboxamide]
13 | < 4.30 | 298 | 6.78 | O=C(C1CN(c2ncccn2)C1)N(Cc1cn2ccc(-c3nnc(C(F)F)o3)cc2n1)c1cccc(F)c1 [Compound 4207, N-((7-(5-(difluoromethyl)-1,3,4-oxadiazol-2-yl)imidazo[1,2-a]pyridin-2-yl)methyl)-N-(3-fluorophenyl)-1-(pyrimidin-2-yl) azetidine-3-carboxamide]
14 | < 4.30 | 197 | 6.59 | O=C(CO)N1CCN(C(=O)N(Cc2cn3ccc(-c4nnc(C(F)F)o4)cc3n2)c2ccccc2)CC1 [Compound 4042, N-((7-(5-(difluoromethyl)-1,3,4-oxadiazol-2-yl)imidazo[1,2-a]pyridin-2-yl)methyl)-4-(2-hydroxyacetyl)-N-phenylpiperazine-1-carboxamide]
15 | < 4.30 | 268 | 6.73 | COC(=O)N1CC(C(=O)N(Cc2cn3ccc(-c4nnc(C(F)F)o4)cc3n2)c2cccc(F)c2)C1 [Compound 4204, methyl 3-(((7-(5-(difluoromethyl)-1,3,4-oxadiazol-2-yl)imidazo[1,2-a]pyridin-2-yl)methyl)(3-fluorophenyl)carbamoyl) azetidine-1-carboxylate]
16 | < 4.30 | 183 | 6.56 | CCN1CCN(C(=O)N(Cc2cn3ccc(-c4nnc(C(F)F)o4)cc3n2)c2cccc(F)c2)CC1 [Compound 4084, N-((7-(5-(difluoromethyl)-1,3,4-oxadiazol-2-yl)imidazo[1,2-a]pyridin-2-yl)methyl)-4-ethyl-N-(3-fluorophenyl)piperazine-1-carboxamide]
17 | < 4.30 | 112 | 6.35 | CS(=O)(=O)c1ccc(Cc2cn3ccc(-c4nnc(C(F)F)o4)cc3n2)cc1 [Compound 3595, 2-(difluoromethyl)-5-(2-(4-(methylsulfonyl)benzyl)imidazo[1,2-a]pyridin-7-yl)-1,3,4-oxadiazole]
18 | < 4.30 | 510 | 7.01 | CN1CC2(C1)CN(C(=O)N(Cc1cn3ccc(-c4nnc(C(F)F)o4)cc3n1)c1ccccc1)C2 [Compound 4625, N-((7-(5-(difluoromethyl)-1,3,4-oxadiazol-2-yl)imidazo[1,2-a]pyridin-2-yl)methyl)-6-methyl-N-phenyl-2,6-diazaspiro[3.3]heptan-2-carboxamide]
19 | < 4.30 | 292 | 6.77 | CCN1CCC(C(=O)N(Cc2cn3ccc(-c4nnc(C(F)F)o4)cc3n2)c2cccc(F)c2)CC1 [Compound 4138, N-((7-(5-(difluoromethyl)-1,3,4-oxadiazol-2-yl)imidazo[1,2-a]pyridin-2-yl)methyl)-1-ethyl-N-(3-fluorophenyl)piperidine-4-carboxamide]
20 | < 4.30 | 233 | 6.67 | CC(C)N1CCN(C(=O)N(Cc2cn3ccc(-c4nnc(C(F)F)o4)cc3n2)c2cccc(F)c2)CC1 [Compound 4085, N-((7-(5-(difluoromethyl)-1,3,4-oxadiazol-2-yl)imidazo[1,2-a]pyridin-2-yl)methyl)-N-(3-fluorophenyl)-4-isopropylpiperazine-1-carboxamide]
